Laboratory results: article PMC4456413, “Trypanothione Reductase: A Target Protein for a Combined In Vitro and In Silico Screening Approach” (PLoS Neglected Tropical Diseases, 2015)
Where two headings read alike, the source gives them in different places.

What was measured:
T. cruzi TR [1] = biological target: T1, T. cruzi TR (Trypanosoma cruzi, UniProt P28593); assay: biochemical
T1 construct: made in house
Experimental: (§1) The compounds used in the enzymatic inhibitory testing and the in silico screening were available as stock solutions in DMSO or in solid from a compound library maintained at MSD. All IC50 determinations were performed starting from solid material. Recombinant T. cruzi TR (CL strain) was prepared using a published expression system. TS2 was prepared enzymatically as described previously. For antiparasitic studies, culture-adapted bloodstream T. brucei parasites of cell line 449 were used. These cells are descendants of strain Lister 427 stably transfected with the gene for the tetracycline repressor.
The kinetic analysis of TR was performed in 384-well plates (Greiner Bio-One GmbH, Frickenhausen, Germany). The reaction mixture (50 μl) contained 5 mU/ml TR, 40 mM Hepes, pH 7.5, 1 mM EDTA, 300 μM NADPH (Sigma-Aldrich), 0.1 mg/ml BSA, and 0.01% Pluronic (BASF). […] In a volume of 30 μl, the assay components and the inhibitor were pre-incubated for 30 minutes and the reaction started by adding 20 μl of 375 μM TS2 resulting in final concentrations of 150 μM TS2 and 2% DMSO. The absorption decrease at 340 nm was measured by start and end point determination resulting in a delta of the optical density (delta A) for 30 min. All experiments were performed at room temperature. The TR concentration was kept constant at 5 mU/ml for all types of experiments. Therefore, after an initial calculation of the turnover number (kcat), only delta A values under identical conditions were compared. Initial screening was performed twice in two independent experiments.
Eleven compound concentrations were used ranging from 100–0.01 μM or 200–0.004 μM. The compounds were freshly dissolved in DMSO. All measurements were performed twice in three independent series. Enzyme activities were plotted versus increasing inhibitor concentrations. IC50 values were calculated using the four-parameter equation model 205 and the option “unlock” from the XLfit add-in (IDBS, Guildford, United Kingdom) in Excel (Microsoft Corporation, Redmond, WA).
A robust NADPH-linked photometric assay was chosen that firstly had to be adapted to the high throughput screening format. The assay volume was reduced from the 1 ml cuvette format to 50 μl total volume in 384 well plates. […] In order to stabilize the enzyme and to prevent adhesion and reduce surface tension as well as the formation of droplets in the small wells, 0.1 mg/ml BSA and 0.01% detergent (Pluronic) were added to the reaction mixture.

T. cruzi TR [2] = biological target: T1, T. cruzi TR; assay: Ki determination and inhibition type on TR; assay type: biochemical; conditions: for binding mode (inhibition type): SigmaPlot Enzyme Kinetics Module; for Ki (Fig 7, uncompetitive mode of inhibition assumed): mean of two independent experiments, no unit printed in the figure, in µM
Experimental: The kinetic analysis of TR was performed in 384-well plates (Greiner Bio-One GmbH, Frickenhausen, Germany). The reaction mixture (50 μl) contained 5 mU/ml TR, 40 mM Hepes, pH 7.5, 1 mM EDTA, 300 μM NADPH (Sigma-Aldrich), 0.1 mg/ml BSA, and 0.01% Pluronic (BASF). The detergent was used to prevent the formation of droplets during pipetting and had no negative effects on the assay kinetics. In a volume of 30 μl, the assay components and the inhibitor were pre-incubated for 30 minutes and the reaction started by adding 20 μl of 375 μM TS2 resulting in final concentrations of 150 μM TS2 and 2% DMSO. The absorption decrease at 340 nm was measured by start and end point determination resulting in a delta of the optical density (delta A) for 30 min. All experiments were performed at room temperature. The TR concentration was kept constant at 5 mU/ml for all types of experiments. Therefore, after an initial calculation of the turnover number (kcat), only delta A values under identical conditions were compared. Initial screening was performed twice in two independent experiments.
Measurements were performed at 60, 80, 120, and 200 μM TS2 and five inhibitor concentrations resulting in 20 different data points per inhibitor. […] SigmaPlot 10 (Systat Software, Inc., San Jose, USA) with the Enzyme Kinetics Module was used to evaluate the inhibition type and Ki values. This software automatically estimates the initial parameters for different fit models, and uses the Marquardt-Levenberg algorithm to determine the parameter values. A detailed statistical report as well as a data report is generated to compare multiple models and graphs. Based on these statistics, the appropriate binding model can be selected. Graphs are created based on the models and the calculated parameter values instead of fitting each individual inhibitor concentration curve.

T. cruzi TR [3] = biological target: T1, T. cruzi TR; assay: Mode of inhibition study: reversibility of binding (Amicon filter wash-out, then standard TR assay); assay type: biochemical
Experimental: Therefore, Amicon Ultra 0.5 ml centrifugal filters with a cut-off of 10,000 MW (Millipore Corporation, Billerica, MA, USA) were washed with 400 μl TR assay buffer and centrifuged for 5 min at 12,500 rpm at room temperature. Remaining buffer was removed by placing the filter upside down into a microcentrifuge tube and centrifugation at 3,500 rpm for 2 min. […] The filter was centrifuged for 15 min at 12,500 rpm, washed three times with 400 μl buffer and centrifuged again. The retentate was collected by placing the filter upside down on a new tube and centrifugation at 3,500 rpm for 2 min. The recovered protein solutions were subjected to a standard TR assay.
A reaction mixture containing TR, inhibitor and NADPH was incubated for 30 minutes. […] Afterwards, the protein was separated from the low molecular mass components by centrifugation in an Amicon tube. Inhibitors with a reversible binding mode would be washed out, whereas irreversible binders remain bound to the protein. Finally, the recovered protein solution was subjected to a standard assay to determine the remaining activity. Two controls were run to determine the maximum activity that could be recovered. One contained the protein assay mixture without inhibitor, while the second control was a mixture of TR and the reversible inhibitor chlorhexidine. […] Subsequently the inhibitor type and constants were determined.

[4] = test system: bloodstream T. brucei (strain 449); assay: Cell culture activity determination by counting living cells; assay type: cell-based; conditions: for EC50: Trypanosoma brucei, read-out: EC50, inhibition of parasite proliferation (living cells counted)
Experimental: as §1
Compounds were dissolved in DMSO to 10 mM stock solutions and added to bloodstream T. brucei (strain 449) in concentrations of 100, 50, 5, 0.5, and 0.05 μM in 24-well plates. The final DMSO content in the cultures was 1, 0.5, 0.05, 0.005 and 0.0005%, respectively. The initial cell density was 2500 cells/ml. After 48 h and 72 h incubation at 37°C in HMI-9 medium, viable cells were counted in a Neubauer chamber. The assay was performed in triplicate. The parasite strain and the culture conditions are described in the literature.

TR = biological target: TR; set-up: method as in ref 39 (mepacrine), 42 (BG237), 43 (chlorhexidine); conditions: published data used for assay validation; ref 39 (mepacrine), 42 (BG237), 43 (chlorhexidine); cited from earlier work
[5] = set-up: method as in ref 47 = [47]; 47 PubChem (2014) Chlorhexidine (CID 9552079), sections “Biomedical Effects and Tixicity” and “Biomolecular Interactions and Pathways”. Available: http://pubchem.ncbi.nlm.nih.gov/summary/summary.cgi?c; conditions: in words; cited from earlier work
[6] = test system: bloodstream T. brucei wild-type cells; assay: EC50 determination by ATPlite 1step assay, wild-type cells; assay type: cell-based; conditions: Trypanosoma brucei
Experimental: (§2) The ATPlite 1step assay system (PerkinElmer, Waltham, MA, USA) was used as described in Füller et al. to quantify T. brucei survival in medium-throughput dose-response series. Experiments were conducted in 96-well microplates (PerkinElmer, Waltham, MA, USA), each well containing 90 μl cell-culture and 10 μl compound. Initial cell densities were 2500 cells/ml. […] Unfortunately, compound 3 was no longer available for testing. […] For each compound, three identical plates were prepared, incubated at 37°C and analyzed after 24 h, 48 h, and 72 h, respectively. Samples from each cell-line left untreated were added to the plates prior to each measurement as additional controls. 50 μl of the ATPlite 1step solution (PerkinElmer, Waltham, MA, USA) were added to each well and the relative luminescence was measured immediately using a VICTOR Multilabel Plate Reader (PerkinElmer, Waltham, MA, USA) at room temperature. The values obtained were plotted against the logarithmic compound concentrations. A dose-response curve was generated from which EC50-values were calculated using the program PRISM 5.0 (GraphPad Software, La Jolla, CA, USA).
(§3) The parasites were cultured in the presence of different concentrations of the compounds and after 48 h and 72 h living cells were counted. […] The assay is based on the emission of light caused by the reaction of ATP with D-luciferin in the presence of luciferase, which is proportional to the amount of ATP serving as a marker for cell viability. […] Unfortunately, the T. brucei strain allowing the down-regulation of TR which was generated more than a decade ago in the laboratory of Christine Clayton is not available anymore. Therefore, this tet-inducible overexpressing system leading to up to three fold higher TR levels had to be used instead. Wild-type cells treated with 1 μg/ml tetracyclin were included to exclude any effect of the antibiotic on parasite proliferation.

[7] = test system: T. brucei parasites transfected with pHD1700-TbTR (TR-Over-expressing cells); assay: EC50 determination by ATPlite 1step assay, TR-over-expressing cells; assay type: cell-based; conditions: Trypanosoma brucei
Experimental: as §2, §3

T. brucei = conditions: read-out: EC50, inhibition of proliferation of T. brucei; cited from earlier work
[8] = HTS format, Ki ± SD (n = 3), Table 1, read-out: Ki Measured
[9] = 60-200 μM TS2, two independent experiments
[10] = 60-200 μM TS2, two independent experiments, read-out: Ki, assumed inhibitor type competitive
[11] = 60-200 μM TS2, two independent experiments, read-out: Ki, assumed inhibitor type noncompetitive

T1 sequence (P28593 whole entry): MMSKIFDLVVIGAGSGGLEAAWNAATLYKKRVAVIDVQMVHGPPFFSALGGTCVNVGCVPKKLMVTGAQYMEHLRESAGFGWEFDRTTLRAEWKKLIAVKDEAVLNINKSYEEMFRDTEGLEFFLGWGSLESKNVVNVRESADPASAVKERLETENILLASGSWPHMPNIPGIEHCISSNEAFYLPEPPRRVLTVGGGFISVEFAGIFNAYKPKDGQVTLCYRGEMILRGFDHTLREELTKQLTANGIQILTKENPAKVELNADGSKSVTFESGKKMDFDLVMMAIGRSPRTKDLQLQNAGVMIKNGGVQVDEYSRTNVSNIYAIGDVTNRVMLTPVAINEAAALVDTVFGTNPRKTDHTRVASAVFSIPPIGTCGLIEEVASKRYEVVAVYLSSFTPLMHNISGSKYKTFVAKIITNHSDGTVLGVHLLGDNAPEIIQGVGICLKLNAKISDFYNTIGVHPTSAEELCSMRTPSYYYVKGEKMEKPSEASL

Structure (SMILES) | IC50 (T. cruzi TR [1]) [µM] | EC50 [4] [µM] | Ki, assumed inhibitor type uncompetitive (T. cruzi TR [2]; [9]) [µM] | Ki (T. cruzi TR [2]; [10]) [µM] | Ki (T. cruzi TR [2]; [11]) [µM] | Ki (Fig 7, uncompetitive mode of inhibition assumed) (T. cruzi TR [2]) | also measured
[H]/N=C(\N/C(=N/[H])NCCCCCCNC(=N)NC(=N)Nc1ccc(Cl)cc1)Nc1ccc(Cl)cc1 [Chlorhexidine, reference compound] | 26 ± 2 | 0.1 to 0.2 | – | – | – | – | Ki (T. cruzi TR [2]; [8]): 4 ± 1 µM; binding mode (inhibition type) (T. cruzi TR [2]): competitive binding mode; reversible or irreversible binding to the enzyme (T. cruzi TR [3]; 100 μM inhibitor, 300 μM NADPH, 30 min incubation, wash-out): reversible; TR activity recovered compared to the initial kinetics (T. cruzi TR [3]; after wash-out of the inhibitor): 70–80%; Ki (TR): 2 µM; permeability described in pharmacokinetic studies [5]: poor permeability
O=C(Nc1ccccc1)OCCSc1ccc([N+](=O)[O-])c2nonc12 [Compound 1] | 0.27 ± 0.01 | – | 0.23 ± 0.02 | 0.06 ± 0.03 | 0.33 ± 0.03 | 0.23 ± 0.02 | –
O=[N+]([O-])c1c(Sc2ncnc3ccccc23)cc(Cl)c2nsnc12 [Compound 2] | 0.58 ± 0.09 | 5 to 50 | 0.88 ± 0.08 | 0.26 ± 0.12 | 1.3 ± 0.12 | 0.88 ± 0.08 | EC50 ([6]; read-out: EC50 24 h, Wild-type cells, ATPlite, 24 h, mean ± SD of three series): 56.4 ± 2 µM; EC50 ([6]; read-out: EC50 48 h, Wild-type cells, ATPlite, 48 h, mean ± SD of three series): 33 ± 2.2 µM; EC50 ([6]; read-out: EC50 at 24 h (ATPlite), 24 h, cell type not given): 42 µM; EC50 ([6]; read-out: EC50 at 48 h (ATPlite), 48 h, cell type not given): 42 µM; EC50 ([6]; 72 h, cell type not given, read-out: EC50 after 72 h (ATPlite)): 58 µM; EC50 ([6]; ATPlite, 72 h, series containing up to 150 μM compound = 1.5% DMSO, which affects cell viability, read-out: EC50 72 h, Wild-type cells): 55.9 ± 1.3 µM; EC50 ([7]; 24 h, read-out: EC50 24 h, TR-Over-expressing cells): 37.6 ± 1.9 µM; EC50 ([7]; 48 h, read-out: EC50 48 h, TR-Over-expressing cells): 46.9 ± 3.1 µM; EC50 ([7]; 72 h, read-out: EC50 72 h, TR-Over-expressing cells): 82 ± 1.6 µM
O=[N+]([O-])c1c(Cl)cc(Cl)c2nsnc12 [Compound 3] | 0.61 ± 0.09 | 5 to 50 | 0.64 ± 0.06 | 0.15 ± 0.09 | 0.91 ± 0.08 | 0.64 ± 0.06 | –
NS(=O)(=O)c1ccc(Nc2cc(Cl)c3nonc3c2[N+](=O)[O-])cc1 [Compound 4] | 0.48 ± 0.02 | – | 0.80 ± 0.10 | 0.19 ± 0.07 | 1.11 ± 0.13 | 0.80 ± 0.10 | EC50, inhibition of parasite proliferation (living cells counted) ([4]; after 48 h and 72 h): not active
CCN(CC)CCCC(C)Nc1c2ccc(Cl)cc2nc2ccc(OC)cc12 (stereo not shown) [Mepacrine, reference compound] | > 200 | – | – | – | – | – | Ki (T. cruzi TR [2]; [8]): 20 ± 5 µM; binding mode (inhibition type) (T. cruzi TR [2]): competitive binding mode; Ki (T. cruzi TR [2]; three independent experiments, fitted to the relevant binding model, read-out: measured Ki (Lineweaver-Burk plots, Fig 3)): 20.7 ± 5.47 µM; Ki (TR): 19 µM
CC1CS(=O)(=O)CCN1/N=C/c1ccc([N+](=O)[O-])o1 (stereo not shown) [nifurtimox] | – | – | – | – | – | – | EC50 (T. brucei): 2.5 µM
